This is an account of results in patent EP0175291B1, “Novel alpha-D-mannosidase inhibitor” (MICROBIAL CHEMISTRY RESEARCH FOUNDATION, priority 1984, dated 1986).

Test [1] deals with α-D-mannosidase of the leguminous plant origin. The settings on record: qualitative, prior art; cited from earlier work.
Test [2] addresses T1, α-D-mannosidase of the rat epididymis origin (Rattus norvegicus, UniProt Q6P762).
T1 sequence (Q6P762 50-1009): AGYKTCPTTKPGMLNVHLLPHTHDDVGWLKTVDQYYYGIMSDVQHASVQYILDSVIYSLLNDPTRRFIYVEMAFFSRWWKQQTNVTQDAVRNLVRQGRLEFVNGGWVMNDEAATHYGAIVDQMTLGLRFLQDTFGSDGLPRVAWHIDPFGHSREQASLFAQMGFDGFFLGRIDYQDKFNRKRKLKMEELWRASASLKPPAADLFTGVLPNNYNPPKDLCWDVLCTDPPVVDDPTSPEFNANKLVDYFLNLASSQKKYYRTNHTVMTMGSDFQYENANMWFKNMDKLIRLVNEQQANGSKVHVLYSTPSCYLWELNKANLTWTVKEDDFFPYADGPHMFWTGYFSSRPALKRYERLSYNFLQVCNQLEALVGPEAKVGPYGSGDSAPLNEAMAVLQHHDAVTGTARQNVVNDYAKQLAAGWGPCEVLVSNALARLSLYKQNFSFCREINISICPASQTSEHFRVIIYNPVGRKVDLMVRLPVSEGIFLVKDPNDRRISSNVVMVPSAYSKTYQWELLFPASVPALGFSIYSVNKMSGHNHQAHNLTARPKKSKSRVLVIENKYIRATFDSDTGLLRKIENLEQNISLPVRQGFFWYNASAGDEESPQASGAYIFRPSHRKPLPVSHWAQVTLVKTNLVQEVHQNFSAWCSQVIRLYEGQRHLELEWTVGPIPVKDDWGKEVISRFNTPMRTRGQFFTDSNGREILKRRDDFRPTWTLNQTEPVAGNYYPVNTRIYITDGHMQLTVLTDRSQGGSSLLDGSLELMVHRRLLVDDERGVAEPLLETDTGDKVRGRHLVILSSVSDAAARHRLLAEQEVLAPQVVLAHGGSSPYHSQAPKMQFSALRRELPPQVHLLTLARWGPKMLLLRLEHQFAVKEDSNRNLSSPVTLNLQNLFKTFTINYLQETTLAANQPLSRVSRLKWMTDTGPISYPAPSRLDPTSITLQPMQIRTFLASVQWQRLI
The experiment in a line: α-D-mannosidase inhibitory activity, colorimetric, p-nitrophenyl-α-D-mannopyranoside substrate. The test is classed as biochemical. The settings on record: qualitative statement. The protocol: Assay of the compounds according to this invention is performed by measuring their α-D-mannosidase inhibitory activity. The activity of α-D-mannosidase is determined by colorimetrically measuring the amount of p-nitrophenol that has been liberated when p-nitrophenyl-α-D-mannopyranoside (Koch-Light Laboratories, England) as a substrate is hydrolyzed with α-D-mannosidase of the rat epididymis origin (a fraction obtained by precipitation with 20 - 80% ammonium sulfate at the Institute of Microbial Chemistry). Details of said procedure are as follows: p-Nitro-phenyl-α-D-mannopyranoside is dissolved in 50% methanol to make a 0.04M solution. To 0.05 ml of the 0.04M substrate solution are added 0.25 ml of a 0.1M acetate buffer (pH 4.5) and 0.15 ml of water or an aqueous solution containing the test compound. The mixture is heated at 37°C for 3 minutes, and 0.05 ml of -D-mannosidase is added. […] The reaction mixture is measured for the absorbance (A) at 400 nm. Separately, the control mixture comprising only water and being free from the aforesaid test compound solution is measured for the absorbance termed (b). The α-D-mannosidase inhibition rate (%) is calculated from the equation (b - a)/b x 100. […]

Each structure is given as a SMILES string. Entries after “also recorded” stand apart in the source; their conditions may differ.

For `O[C@H]1[C@H]2[C@H](O)CCCN2C[C@H]1O` [Swainsonine], the “inhibition of α-D-mannosidase of the leguminous plant origin, in words” value in test [1] is listed as “inhibits”.
For `C[S+]([O-])C1C(N)C(O)C(O)C1O` (stereo not drawn) [mannostatin S-oxide], the “inhibition of α-D-mannosidase of the animal origin (rat epididymides), in words” value in test [2] is recorded as “stronghly inhibit; also recorded: strongly inhibit”.
On the same count and under the same terms, in the case of `CSC1C(N)C(O)C(O)C1O` (stereo not drawn) [mannostatin] it was “stronghly inhibit; also recorded: strongly inhibit”.
